In paper PMC11420878, “Labeling of CC Chemokine Receptor 2 with a Versatile Intracellular Allosteric Probe” (ACS Chemical Biology, 2024):

What was measured:
Type in all cases: binding
[1] = biological target: T1, CC chemokine receptor 2 (CCR2) (Homo sapiens, UniProt P41597); test: [3H]CCR2-RA-[R] displacement, […] h preincubation; in-gel fluorescence labeling; parameters: CCR2 stably expressed in U2OS membranes; HA-CCR2 in HEK293T membranes
[2] = biological target: T1, CC chemokine receptor 2 (CCR2); test: [3H]CCR2-RA-[R] displacement (Ki shift), in-gel fluorescence labeling, pull-down proteomics; parameters: CCR2 stably expressed in U2OS membranes; HA-CCR2 in HEK293T membranes
[3] = biological target: T1, CC chemokine receptor 2 (CCR2); test: [3H]CCR2-RA-[R] displacement, […] h preincubation; parameters: CCR2 stably expressed in U2OS membranes

T1 sequence (P41597 whole entry): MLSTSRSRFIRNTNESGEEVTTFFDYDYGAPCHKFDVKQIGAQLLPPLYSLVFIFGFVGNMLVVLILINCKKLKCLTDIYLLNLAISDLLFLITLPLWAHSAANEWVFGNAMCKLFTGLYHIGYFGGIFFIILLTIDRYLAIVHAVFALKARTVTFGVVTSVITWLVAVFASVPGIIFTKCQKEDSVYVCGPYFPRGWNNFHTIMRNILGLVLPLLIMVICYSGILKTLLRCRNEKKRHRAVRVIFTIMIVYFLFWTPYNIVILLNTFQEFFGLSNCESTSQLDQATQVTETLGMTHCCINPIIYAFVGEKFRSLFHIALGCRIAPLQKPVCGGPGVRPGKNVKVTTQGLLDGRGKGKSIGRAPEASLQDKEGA

| Structure (SMILES) | Ki [1] [nM] | Ki [3] [nM] | also measured |
| --- | --- | --- | --- |
| C#CCOc1cc(NC(=O)C=C)ccc1Oc1ccc(Cl)cc1NS(=O)(=O)c1ccc(Cl)c(C(F)(F)F)c1 [6a] | ~0.5 | – | – |
| C#CCOCCOc1cc(NC(=O)C=C)ccc1Oc1ccc(Cl)cc1NS(=O)(=O)c1ccc(Cl)c(C(F)(F)F)c1 [6b] | ~0.5 | – | – |
| C#CCOCCOCCOc1cc(NC(=O)C=C)ccc1Oc1ccc(Cl)cc1NS(=O)(=O)c1ccc(Cl)c(C(F)(F)F)c1 [6c, probe 6c] | – | – | Ki [2]: ~0.5 nM |

Continued, in another order:

| Ki [1] [nM] | Ki [3] [nM] | Structure (SMILES) | also measured |
| --- | --- | --- | --- |
| – | ~1.3 | C#CCOc1cc(NC(=O)CCSC#N)ccc1Oc1ccc(Cl)cc1NS(=O)(=O)c1ccc(Cl)c(C(F)(F)F)c1 [8a] | – |
| – | ~1.3 | C#CCOCCOc1cc(NC(=O)CCSC#N)ccc1Oc1ccc(Cl)cc1NS(=O)(=O)c1ccc(Cl)c(C(F)(F)F)c1 [8b] | – |
| – | ~1.3 | C#CCOCCOCCOc1cc(NC(=O)CCSC#N)ccc1Oc1ccc(Cl)cc1NS(=O)(=O)c1ccc(Cl)c(C(F)(F)F)c1 [8c] | – |
